Experimental data taken from PubChem BioAssay AID192 (DTP/NCI, 2004).
Inconclusive results and toxic doses are left out. The calls were made as follows: active = survival T/C of 150% or more; inactive = T/C below 125% in these data.

Test system: BDF1 mice, B16 melanoma ip, median survival T/C
Experiment: NCI In Vivo Anticancer Drug Screen. Data for tumor model B16 Melanoma (intraperitoneal) in B6D2F1 (BDF1) mice
Conditions: endpoint: median survival time, higher = longer survival
Procedure, shortened: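 Tumor-bearing mice received test compound or vehicle. Survival or tumor size was then measured in both groups. The treated-group figure was divided by the control-group figure.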

[1] = dose: 25.0 mg/kg/injection, schedule: Q01DX009 (ip), vehicle: saline
[2] = dose: 100.0 mg/kg/injection, schedule: Q01DX009 (ip), vehicle: saline
[3] = dose: 100.0 mg/kg/injection, schedule: Q04DX003 (ip), vehicle: saline with Tween-80
[4] = dose: 12.5 mg/kg/injection, schedule: Q01DX009 (ip), vehicle: Klucel (hydroxypropylcellulose) (HPC)
[5] = dose: 50.0 mg/kg/injection, schedule: Q01DX009 (ip), vehicle: Klucel (hydroxypropylcellulose) (HPC)
[6] = dose: 100.0 mg/kg/injection, schedule: Q01DX009 (ip), vehicle: Klucel (hydroxypropylcellulose) (HPC)
[7] = dose: 25.0 mg/kg/injection, schedule: Q01DX009 (ip), vehicle: Klucel (hydroxypropylcellulose) (HPC)
[8] = dose: 200.0 mg/kg/injection, schedule: Q01DX009 (ip), vehicle: Klucel (hydroxypropylcellulose) (HPC)
[9] = dose: 400.0 mg/kg/injection, schedule: Q01DX009 (ip), vehicle: Klucel (hydroxypropylcellulose) (HPC)
[10] = dose: 50.0 mg/kg/injection, schedule: Q01DX009 (ip), vehicle: saline
[11] = dose: 12.5 mg/kg/injection, schedule: Q01DX009 (ip), vehicle: saline with Tween-80

Measured: T/C

Nc1ccn(C2OC(CO)C(O)C2O)c(=O)n1 (stereo not given)
inactive: dose: 6.25 mg/kg/injection, schedule: Q01DX009 (ip), vehicle: saline 120 % of control | [1] 98 % of control | dose: 80.0 mg/kg/injection, schedule: Q01DX009 (ip), vehicle: saline 71 % of control | [2] 97 % of control | [3] 100 % of control | dose: 200.0 mg/kg/injection, schedule: Q01DX009 (ip), vehicle: saline 94 % of control | dose: 200.0 mg/kg/injection, schedule: Q04DX003 (ip), vehicle: saline with Tween-80 92 % of control | dose: 250.0 mg/kg/injection, schedule: Q04DX009 (ip), vehicle: saline 100 % of control | dose: 400.0 mg/kg/injection, schedule: Q04DX003 (ip), vehicle: saline with Tween-80 92 % of control

CCCCCCOP(=O)(CCCCCC)OCCCCCC
inactive: [4] 91 % of control | [5] 94 % of control | [6] 97 % of control

Cc1ccc([N+](=O)[O-])c(OC(=O)Nc2ccccc2Cl)c1
inactive: dose: 100.0 mg/kg/injection, schedule: Q04DX003 (ip), vehicle: Klucel (hydroxypropylcellulose) (HPC) 100 % of control | dose: 200.0 mg/kg/injection, schedule: Q04DX003 (ip), vehicle: Klucel (hydroxypropylcellulose) (HPC) 93 % of control | dose: 400.0 mg/kg/injection, schedule: Q04DX003 (ip), vehicle: Klucel (hydroxypropylcellulose) (HPC) 93 % of control

COc1cccc(CNc2cccc(Cl)c2Cl)c1OC
inactive: [4] 99 % of control | [7] 105 % of control | [5] 101 % of control | [6] 101 % of control | [8] 95 % of control | [9] 102 % of control

CC(C)=CCC1(O)C(=O)c2ccccc2C1(O)C(=O)O (stereo not given)
inactive: [7] 92 % of control | [5] 101 % of control | [6] 90 % of control | [8] 93 % of control

Cc1cnc(=S)[nH]c1N
inactive: [5] 108 % of control | [6] 97 % of control | [8] 94 % of control

O=C(CC(CC(=O)c1ccccc1)c1ccco1)c1ccccc1
inactive: [6] 93 % of control | [8] 93 % of control | [9] 93 % of control

CCN1Cc2ccc(O)cc2C1
inactive: [1] 98 % of control | [10] 100 % of control | [2] 97 % of control

CCN(CC)CC#N
inactive: dose: 1.0 mg/kg/injection, schedule: Q01DX009 (ip), vehicle: saline 94 % of control | dose: 2.0 mg/kg/injection, schedule: Q01DX009 (ip), vehicle: saline 105 % of control | dose: 4.0 mg/kg/injection, schedule: Q01DX009 (ip), vehicle: saline 104 % of control

CCCCCCCNC(=O)Nc1cccc(Cl)c1C
inactive: [5] 99 % of control | [6] 90 % of control | [8] 95 % of control

CCOC(=O)c1ccc(NC(=O)Nc2nccs2)cc1
inactive: dose: 6.25 mg/kg/injection, schedule: Q01DX009 (ip), vehicle: Klucel (hydroxypropylcellulose) (HPC) 102 % of control | dose: 6.25 mg/kg/injection, schedule: Q01DX009 (oral), vehicle: Klucel (hydroxypropylcellulose) (HPC) 113 % of control | [4] 99 % of control | [11] 110 % of control | dose: 12.5 mg/kg/injection, schedule: Q01DX009 (oral), vehicle: Klucel (hydroxypropylcellulose) (HPC) 108 % of control | dose: 12.5 mg/kg/injection, schedule: Q01DX009 (oral), vehicle: saline with Tween-80 107 % of control | [7] 96 % of control | dose: 25.0 mg/kg/injection, schedule: Q01DX009 (oral), vehicle: Klucel (hydroxypropylcellulose) (HPC) 110 % of control | dose: 25.0 mg/kg/injection, schedule: Q01DX009 (oral), vehicle: saline with Tween-80 109 % of control | [5] 96 % of control | dose: 50.0 mg/kg/injection, schedule: Q01DX009 (oral), vehicle: Klucel (hydroxypropylcellulose) (HPC) 119 % of control | dose: 50.0 mg/kg/injection, schedule: Q01DX009 (oral), vehicle: saline with Tween-80 106 % of control | [6] 114 % of control | dose: 100.0 mg/kg/injection, schedule: Q01DX009 (oral), vehicle: Klucel (hydroxypropylcellulose) (HPC) 102 % of control | dose: 100.0 mg/kg/injection, schedule: Q01DX009 (oral), vehicle: saline with Tween-80 119 % of control | [8] 113 % of control | dose: 200.0 mg/kg/injection, schedule: Q01DX009 (oral), vehicle: Klucel (hydroxypropylcellulose) (HPC) 99 % of control | dose: 200.0 mg/kg/injection, schedule: Q01DX009 (oral), vehicle: saline with Tween-80 112 % of control | dose: 400.0 mg/kg/injection, schedule: Q01DX009 (oral), vehicle: saline with Tween-80 110 % of control

Nc1nc2c(c(=O)[nH]1)NC(CCNc1ccc(C(=O)NC(CCC(=O)O)C(=O)O)cc1)CN2 (stereo not given)
inactive: [1] 94 % of control | [10] 102 % of control | [2] 110 % of control

OCC1OC(OC2(CO)OC(CO)C(O)C2O)C(O)C(O)C1O (stereo not given)
inactive: dose: 3.9 mg/kg/injection, schedule: Q01DX005 (ip), vehicle: saline 104 % of control | dose: 7.81 mg/kg/injection, schedule: Q01DX005 (ip), vehicle: saline 87 % of control | dose: 15.63 mg/kg/injection, schedule: Q01DX005 (ip), vehicle: saline 105 % of control | dose: 31.25 mg/kg/injection, schedule: Q01DX005 (ip), vehicle: saline 104 % of control | dose: 62.5 mg/kg/injection, schedule: Q01DX005 (ip), vehicle: saline 105 % of control | dose: 125.0 mg/kg/injection, schedule: Q01DX005 (ip), vehicle: saline 105 % of control | dose: 250.0 mg/kg/injection, schedule: Q01DX005 (ip), vehicle: saline 109 % of control | dose: 500.0 mg/kg/injection, schedule: Q01DX005 (ip), vehicle: saline 105 % of control | dose: 1000.0 mg/kg/injection, schedule: Q01DX005 (ip), vehicle: saline 104 % of control | dose: 2000.0 mg/kg/injection, schedule: Q01DX005 (ip), vehicle: saline 102 % of control

CN1CCC23c4ccccc4NC1C21CCN(C)C3Nc2ccccc21
inactive: dose: 1.87 mg/kg/injection, schedule: Q01DX009 (ip), vehicle: saline 107 % of control | dose: 3.75 mg/kg/injection, schedule: Q01DX009 (ip), vehicle: saline 107 % of control | dose: 7.5 mg/kg/injection, schedule: Q01DX009 (ip), vehicle: saline 109 % of control

CC1CCC2(CC1)CCN(CCCN(C)C)CC2
inactive: [10] 99 % of control | [2] 110 % of control

CC(Cc1ccccc1)NN (stereo not given)
inactive: dose: 0.97 mg/kg/injection, schedule: Q01DX009 (ip), vehicle: saline 110 % of control | dose: 1.95 mg/kg/injection, schedule: Q01DX009 (ip), vehicle: saline 112 % of control | dose: 3.9 mg/kg/injection, schedule: Q01DX009 (ip), vehicle: saline 102 % of control | dose: 7.81 mg/kg/injection, schedule: Q01DX009 (ip), vehicle: saline 112 % of control

CCCCC(SC(CC)(C(N)=O)c1ccccc1)C(=O)O (stereo not given)
inactive: dose: 50.0 mg/kg/injection, schedule: Q01DX009 (ip), vehicle: saline with Tween-80 100 % of control | dose: 100.0 mg/kg/injection, schedule: Q01DX009 (ip), vehicle: saline with Tween-80 99 % of control | dose: 200.0 mg/kg/injection, schedule: Q01DX009 (ip), vehicle: saline with Tween-80 92 % of control | dose: 400.0 mg/kg/injection, schedule: Q01DX009 (ip), vehicle: saline with Tween-80 90 % of control

O=[N+]([O-])c1ccc(N2CCCC2)c([N+](=O)[O-])c1
inactive: [6] 93 % of control | [8] 100 % of control | [9] 100 % of control

CC(=N\O)/C(C)=N/O.CC(=N\O)/C(C)=N/O.[Fe].c1c[nH]cn1.c1c[nH]cn1
inactive: [6] 100 % of control | [8] 100 % of control

CCCCN(CCCC)CCNc1ccc(Cl)c2oc3cc(C)ccc3c(=O)c12
inactive: [11] 100 % of control | dose: 25.0 mg/kg/injection, schedule: Q01DX009 (ip), vehicle: saline with Tween-80 93 % of control | dose: 25.0 mg/kg/injection, schedule: Q04DX003 (ip), vehicle: saline with Tween-80 105 % of control | dose: 50.0 mg/kg/injection, schedule: Q04DX003 (ip), vehicle: saline with Tween-80 92 % of control | [3] 86 % of control

Cc1cc2c3ccc(C)[n+](C)c3ccc2n1C
inactive: dose: 0.08 mg/kg/injection, schedule: Q01DX009 (ip), vehicle: saline 102 % of control | dose: 0.15 mg/kg/injection, schedule: Q01DX009 (ip), vehicle: saline 92 % of control | dose: 0.3 mg/kg/injection, schedule: Q01DX009 (ip), vehicle: saline 97 % of control | dose: 1.25 mg/kg/injection, schedule: Q01DX009 (ip), vehicle: saline 100 % of control | dose: 2.5 mg/kg/injection, schedule: Q01DX009 (ip), vehicle: saline 94 % of control
